The test has as its target T1, PR-B (Homo sapiens, UniProt P06401).
T1 sequence (P06401 1-933): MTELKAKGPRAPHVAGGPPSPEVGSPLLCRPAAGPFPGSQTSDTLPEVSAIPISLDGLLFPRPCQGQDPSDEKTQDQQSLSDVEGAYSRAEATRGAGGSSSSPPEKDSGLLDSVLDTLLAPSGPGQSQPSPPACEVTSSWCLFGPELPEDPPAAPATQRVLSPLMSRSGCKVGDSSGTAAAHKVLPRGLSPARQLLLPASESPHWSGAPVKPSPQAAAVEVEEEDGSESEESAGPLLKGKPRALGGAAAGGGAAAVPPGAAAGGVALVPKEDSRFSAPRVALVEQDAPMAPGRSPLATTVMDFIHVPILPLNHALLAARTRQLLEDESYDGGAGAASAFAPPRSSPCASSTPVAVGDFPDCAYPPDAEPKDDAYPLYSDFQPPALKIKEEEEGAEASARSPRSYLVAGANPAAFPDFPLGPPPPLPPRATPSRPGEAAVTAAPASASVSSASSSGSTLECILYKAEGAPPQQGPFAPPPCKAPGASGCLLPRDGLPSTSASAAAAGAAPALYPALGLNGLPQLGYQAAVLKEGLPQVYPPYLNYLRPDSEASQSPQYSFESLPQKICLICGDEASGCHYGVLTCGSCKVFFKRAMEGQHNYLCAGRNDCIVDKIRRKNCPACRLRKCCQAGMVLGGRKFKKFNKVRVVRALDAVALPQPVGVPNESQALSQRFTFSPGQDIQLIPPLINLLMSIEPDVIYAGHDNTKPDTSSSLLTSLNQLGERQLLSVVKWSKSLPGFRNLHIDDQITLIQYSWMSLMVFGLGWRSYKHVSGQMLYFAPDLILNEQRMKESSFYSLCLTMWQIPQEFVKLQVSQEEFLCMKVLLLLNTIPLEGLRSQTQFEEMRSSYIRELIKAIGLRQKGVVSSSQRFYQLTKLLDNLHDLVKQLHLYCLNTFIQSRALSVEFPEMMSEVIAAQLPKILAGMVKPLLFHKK
Put plainly: Direct inhibition of PR-B transcriptional activity, CV-1 cells. In kind it is cell-based. Details: expressed in transfected cells; host or cells: CV-1, HepG2 (PRE2 tk-LUC); HeLa, also HepG2 and CV-1 (TAT promoter). Particulars: read-out: IC50 (50% maximal Inhibitory concentration), transcriptional activity of PR-B; in the presence of 10^-8 progesterone.

The record followed here is patent US5506102A (priority 1993, dated 1996).

`CC#C[C@]1(O)CC[C@H]2[C@@H]3CCC4=CC(=O)CCC4=C3[C@@H](c3ccc(C(C)=O)cc3)C[C@@]21C` [ZK112993]: the IC50 is 0.6 nM.
